This note sets out measurements from US10813888B2, “Formulations of cysteamine and cysteamine derivatives” (RECORDATI INDUSTRIA CHIMICA E FARMACEUTICA SPA, priority 2016, dated 2020).

The nature of this series: In vitro dissolution test, USP Apparatus II at pH 1.2 for 1 hour. The series is classed as physicochemical. The method, then:
The in vitro dissolution tests were conducted in an USP Apparatus II at pH 1.2 for 1 hour. The cysteamine bitartrate raw material was completely dissolved in 10 minutes.

On to `NCCS.O=C(O)C(O)C(O)C(=O)O` (stereo not shown) [cysteamine bitartrate raw material, cysteamine bitartrate], for which the “time to complete dissolution” value turned out to be 10 min.
